Source: patent publication US20250127774A1, “COMPOUNDS FOR LABELLING NUCLEIC ACID AND USES THEREOF” (THE ROYAL INSTITUTION FOR THE ADVANCEMENT OF …, priority 2022, published 2025)

How the values were obtained:
[1] = tested on: duplex DNA containing VdU (vinyl-modified ODN); experiment: Kinetic measurements with ODNs (DNA-templated PINK-VdU reaction); settings: 50 mM aq. NaOAc buffer pH 5.2 (0.8% DMSO)
Text: A) Relative fluorescence units (RFU) of PINK upon reaction with vinyl-modified ODN versus time. […] B) Normalized increase of fluorescence. C) Plot of the observed rates k′ against PINK concentration. The slope yields the rate constant k.
To characterize DNA-templated PINK-VdU reactions, a VdU-containing, palindromic 17-mer DNA oligonucleotide “ODN1” was synthesized (Table 1). The DMT-protected VdU phosphoramidite S4 (Scheme 2)^[51] was incorporated into the oligomer utilizing standard solid phase supported DNA synthesis. ODN1 was purified using reverse-phase HPLC and annealed with a complimentary strand to form a duplex. […] By tracking the fluorescence changes under pseudo-first order conditions (FIG. 8), an apparent rate constant k=590 M^−1 s^−1 was determined for the reaction between PINK and the duplex DNA containing VdU. […]
Kinetic Measurements with ODNs. Second-order rate constants for the reaction between vinyl-modified ODN and PINK were determined under pseudo first order conditions employing an excess of the tetrazine. […] Measurements were performed on a SpectraMax M5 plate reader (Molecular Devices, Sunnyvale, CA, USA) in 384 well plates (Greiner bio-one, cat-#871906; 40 μL per well). […] Samples were measured over the course of 1 h in intervals of 45 s. […] Reactions rates were calculated using pseudo first order approximations fitting the measurements to mono exponential equations. […]

PINK stability test = assay type: physicochemical; settings: 20 μM PINK, 1 mM b.p. CT-DNA, PBS pH 7.4 (10% DMSO)
Protocol: B) Fluorescence changes (excitation: 500 nm, emission: 590 nm; 515 nm cutoff filter) of 20 μM PINK in the presence of 1 mM b.p. CT-DNA (50 eq) in PBS pH 7.4 (10% DMSO) followed by addition of 5-norbornene-2-methanol (2 mM, 100 eq).
PINK Stability Test. Fluorescence changes (excitation: 500 nm, emission: 590 nm; 515 nm cutoff filter) of 20 μM PINK were monitored in the presence of 1 mM base pairs of calf thymus (CT) DNA (50 eq) in PBS pH 7.4 (10% DMSO) followed by addition of 5-norbornene-2-methanol (2 mM, 100 eq). Measurements were conducted on a SpectraMax M5 plate reader (Molecular Devices, Sunnyvale, CA, USA) in 1 cm path-length quartz cuvettes.

[2] = Photophysical measurements (quantum yield) of PINK and PINK-VdU-ox; assay type: physicochemical; settings: excitation 488 nm, Rhodamine 6G standard; PINK in aqueous and aprotic solvents, 6 depending on the solvent used
Protocol: PINK (4) undergoes a highly fluorogenic and regioselective IEDDA reaction with VdU (5) to give “PINK-VdU-ox” (6) as a single isomer in a 76% isolated yield after 7d at 60° C. (Scheme 1). The slow rate of this non-templated reaction (Kapp=0.01 M^−1 s^−1, FIG. 5) is due to the combination of an unstrained terminal alkene and unactivated tetrazine.^[49] Over the course of the reaction, a ˜100-fold increase in fluorescence was observed (FIG. 3, c). With a quantum yield (φF)<0.2%, PINK (4) is essentially non-fluorescent in both aqueous and aprotic solvents (FIG. 6).
Highly viscous solvents, including glycerol and polyethylene glycol (PEG 200) induced higher fluorescence of 6, likely by restricting bond rotation and thus suppressing formation of a non-emissive, twisted intramolecular charge transfer (TICT) state.^[50]
Photophysical Measurements. Stock solutions (1-10 mM) of investigated compounds were prepared in DMSO and stored at −20° C. DMSO concentrations were less than 1% after dilution into the respective solvent/aqueous buffer. Measurements were collected on a SpectraMax M5 plate reader (Molecular Devices, Sunnyvale, CA, USA) in 1 cm path-length quartz cuvettes. Quantum yields were obtained by excitation at 488 nm using Rhodamine 6G ((=0.94) in EtOH (n=1.3624) as a fluorescent standard.^[1] Quantum yields were calculated using the equation I: […]

## Cc1nnc(-c2ccc3cc4ccc(N(C)C)cc4nc3c2)nn1 [PINK]
[1]; 4 μM vinyl-modified ODN, PINK 3-5 eq
  apparent rate constant k, reaction with duplex DNA containing VdU: 590 M⁻¹ s⁻¹
[1]; 12-20 μM PINK, 1 h
  stability of PINK under control conditions (without vinyl-modified ODN): full stability
PINK stability test
  degradation of PINK on extended incubation with unmodified DNA: little-to-no degradation
[2]
  quantum yield (φF): < 0.2%
